According to patent publication US20240299420A1, “TETRACYCLINE DERIVATIVE-INDUCED MITOHORMESIS MEDIATES DISEASE TOLERANCE AGAINST VIRAL INFECTIONS” (priority 2021, published 2024):
Entries after “also recorded” stand apart in the source; their conditions may differ.

Experiments:
germ-free C57BL/6J mice = assay type: in vivo, mouse; settings: Dox 500 mpkd in drinking water, 16 days, vs control
From the text: B. Volcano plots displaying-log(adj. p-value) and the log fold change (FC) in expression of genes in kidney and liver. Above the graph, the number of differentially expressed genes is indicated (genes with adjusted p value (adj.pval)<0.05). C. […] E. Immunoblots of phosphorylated elF2α (pelF2α) and total elF2α and quantification in liver of Dox-treated germ-free mice.
Body weight at the time of the sacrifice was not different between the control and Dox-treated animals (FIG. 7A), indicating the absence of obvious adverse effects. […] Dox elicited organ-specific transcriptional responses, with the expression of remarkably more genes and different being affected in the kidney compared to the liver (FIG. 7B-C). […] The MSR features the induction of mitochondrial chaperones and proteases, such as Hspa9 and Lonp1, as well as of enzymes mediating adaptation to nutrient deprivation, such as asparagine synthetase (ASNS), which were increased at both the transcript and protein levels (FIG. 1C-D). […] Dox-treated germ-free mice kidneys thus gathered the typical attributes of the ATF4-ISR, a hallmark of the mammalian response to mitochondrial stress.
Male 9 weeks-old C57BL/6J mice were treated for 16 days with 500 mg/kg/day doxycycline hyclate (Sigma) in drinking water. Mice were housed with ad libitum access to water and food and kept under a 12-hour dark/12-hour light cycle. […]

IFV H1N1 PR8 strain [1] = assay: IFV infection in BALB/cN mice, 175 PFU, preventive treatment; assay type: in vivo, mouse; settings: for survival (mice recovering): Dox 40 mpkd or 9-TB 1 mpkd daily i.p., all control mice dead by day 11
gut bacterial community = settings: Dox 40 mpkd; for gut bacterial community composition (perMANOVA, NMDS): after 3 and 6 days of treatment, 9-TB 1 mpkd, vs untreated mice
[2] = system: IFV-A H1N1 PR8 infected BALB/cN mice; assay: RNA-Seq and GSEA of lung, liver and kidney of IFV infected mice (175 PFU, day 7)
[3] = system: hsp-6::gfp reporter (UPR^mt); assay type: in vivo, Caenorhabditis elegans; settings: for UPR^mt activation (hsp-6::gfp reporter): 68 µM, 9-TB at 17 μM; for induction of MSR and in particular mitohormesis: summary of screen of 51 tetracycline derivatives
[4] = system: hsp-6::gfp reporter (UPR^mt); assay type: in vivo, Caenorhabditis elegans; settings: microfluidic device; relative to Dox and cco-1 RNAi
E. coli = assay: Minimum inhibitory concentration (MIC) of bacterial growth; assay type: cell-based; settings: compared with Dox
P. aeruginosa = assay: as above; assay type: cell-based; settings: compared with Dox
HEK293T cells [5] = assay: Mitonuclear protein imbalance (MTCO1/ATP5A immunoblot) in HEK293T cells; assay type: cell-based, human; settings: 24 hours, stronger than Dox
Procedure: The mitonuclear protein imbalance may be determined by a disbalanced ratio between a mitochondrial-encoded gene (e.g. MTCO1) versus a nuclear-encoded gene (e.g. ATP5A) of OXPHOS subunits as is illustrated by FIG. 3A.
A. Immunoblots of HEK293T cells for the OXPHOS subunits ATP5A (encoded in nuclear DNA) and MTCO1 (encoded in mitochondrial DNA) with TUBULIN serving as a control. Quantification of the relative MTCO1/ATP5A ratio is shown on the right. […] Statistical analysis was performed by ANOVA followed by Tukey post-hoc test (*p≤0.05, **p≤0.01, ***p≤0.001). Error bars represent standard error mean (SEM).
HEK293T (Human embryonic kidney 293T) cells were purchased from ATCC and have been routinely checked in the laboratory for mycoplasma contamination with the MycoProbe detection kit (R&D systems). […]
Tissues and cells were lysed using RIPA buffer (50 mM Tris-HCl pH 7.4, 150 mM NaCl, 1% NP-40, 0.5% Na-deoxycholate, 0.1% SDS, 2 mM EDTA, and 50 mM NaF) supplemented with protease and phosphatase inhibitor cocktails (Roche/Thermo Fisher Scientific). […] Protein concentration was determined by the Lowry method. […] Samples were analyzed by immunoblotting using standard procedures.

HEK293T cells [6] = assay: Oxygen consumption rate in HEK293T cells (Seahorse XF96); assay type: cell-based, human; settings: 24 h, compared with Dox
Procedure: B. Oxygen consumption rate of HEK293T cells exposed to different concentrations of Dox, 9-TB, or ATc (n=8). […] Error bars represent standard error mean (SEM).
HEK293T (Human embryonic kidney 293T) cells were purchased from ATCC and have been routinely checked in the laboratory for mycoplasma contamination with the MycoProbe detection kit (R&D systems). HEK293T were grown at 37° C. in a humidified atmosphere of 5% CO2/95% air in DMEM medium with 4.5 g/L glucose (Gibco) including 10% FBS (Gibco), 1× nonessential amino acids (Invitrogen) and 5 mM penicillin/streptomycin (Invitrogen). Cells were treated for 24 h with the indicated doses of compounds 24 hours after seeding. Oxygen consumption rate was measured with the Seahorse XF96 instrument (Seahorse Bioscience) according to the manufacturer's protocol.

HEK293T cells [7] = assay: MSR gene transcripts by RT-qPCR in HEK293T cells; assay type: cell-based, human; settings: 24 h, compared with Dox
Procedure: Transcript levels of the indicated MSR genes measured by RT-qPCR (n=4).
HEK293T (Human embryonic kidney 293T) cells were purchased from ATCC and have been routinely checked in the laboratory for mycoplasma contamination with the MycoProbe detection kit (R&D systems). HEK293T were grown at 37° C. in a humidified atmosphere of 5% CO2/95% air in DMEM medium with 4.5 g/L glucose (Gibco) including 10% FBS (Gibco), 1× nonessential amino acids (Invitrogen) and 5 mM penicillin/streptomycin (Invitrogen). Cells were treated for 24 h with the indicated doses of compounds 24 hours after seeding.
RNA from cells and tissues was extracted using TRIzol and then reverse-transcribed into cDNA by the QuantiTect Reverse Transcription Kit (Qiagen) following the manufacturer's instructions. The qPCR reactions were performed using the LightCycler 480 II system and SYBR Green qPCR Master mix (Roche). All results are presented relative to the mean of housekeeping genes (ΔΔCt method). All mRNA expression levels were corrected for expression of the housekeeping gene 36B4 or Actb for samples of mouse origin, ACTB for samples of human origin.

[8] = system: mouse bone marrow derived macrophages (BMDM); assay: ISG and MSR gene transcripts by RT-qPCR in BMDM; assay type: cell-based; settings: 24 hours, 9-TB 1.88 μg/ml, ATc 3.75 and 7.5 μg/ml vs Dox 7.5-15 μg/ml
[9] = system: mouse bone marrow derived macrophages (BMDM); assay: IFNβ measurement in BMDM culture medium (ELISA); assay type: cell-based; settings: 24 hours, 9-TB 1.88 μg/ml, ATc 3.75 and 7.5 μg/ml vs Dox 7.5-15 μg/ml
IFV H1N1 PR8 strain [10] = assay: IFV infection in BALB/cN mice, 1000 PFU, preventive treatment; assay type: in vivo, mouse; settings: Dox 50 mpkd
IFV H1N1 PR8 strain [11] = assay: IFV infection in BALB/cN mice, 760 PFU, therapeutic treatment; assay type: in vivo, mouse; settings: 9-TB 0.025 and 0.05 mpkd from day 1 post-inoculation, trend, not significant
From the text: A. Comparison of bacterial community composition by nonmetric multidimensional scaling (NMDS) based on the Bray-Curtis dissimilarity. B. Comparison of bacterial species diversity in terms of Shannon diversity index (SDI) and richness. Statistical significance assessed by Kruskal-Wallis test and post-hoc Wilcoxon test with p-value adjusted for multiple comparison using the Holm-Bonferroni method. ‘****’: p<0.0001, ‘***’: p<0.001, ‘**’: p<0.01, ‘*’: p<0.05, ‘ns’: p>0.05. C-D. 8-weeks old BALB/cN mice (n=12) were infected intranasally with 760 PFU of IFV-A H1N1 PR8 and injected with 9-TB (0.05, 0.025 mpkd). Survival (C) and clinical score (D) were followed for 14 days post-infection (n=12). Statistical analysis was performed by ANOVA followed by Tukey post-hoc test (*p≤0.05, **p≤0.01, ***p≤0.001). For survival curves, statistical analysis was performed by Log-rank (Mantel-Cox) test (*p≤0.05, **p≤0.01, ***p≤0.001). Error bars represent standard error mean (SEM).
A. Descriptive scheme of the mouse IFV infection experiment depicted in FIG. 5C-D, S5B. B. 8-weeks old BALB/cN mice (n=12) were infected intranasally with 760 PFU of IFV-A H1N1 PR8 and injected with 9-TB (0.05, 0.025 mpkd). Body weight was followed for 14 days post-inoculation (n=12). C. […]

## C[C@H]1c2cccc(O)c2C(=O)C2=C(O)[C@]3(O)C(=O)C(C(N)=O)=C(O)[C@@H](N(C)C)[C@@H]3[C@@H](O)[C@@H]21 [Dox, doxycycline]
germ-free C57BL/6J mice
  Body weight at the time of the sacrifice: not different
IFV H1N1 PR8 strain [1]
  survival (mice recovering): 50%
Gut bacterial community
  bacterial species diversity (Shannon diversity index and richness): lower bacterial species diversity
  gut bacterial community composition (perMANOVA, NMDS): significant difference in composition
[2]; Dox 40 mpkd
  gene sets involved in cytopathic processes and fibrosis in liver and kidney: induced

## C[C@H]1c2ccc(C(C)(C)C)c(O)c2C(O)=C2C(=O)[C@]3(O)C(O)=C(C(N)=O)C(=O)[C@@H](N(C)C)[C@@H]3[C@@H](O)[C@@H]21 [9-TB, 9-tert-butyl-doxycycline]
[3]
  UPR^mt activation (hsp-6::gfp reporter): strongest activators
  induction of MSR and in particular mitohormesis: strongest inducer of MSR
[4]
  UPR^mt induction, dose-response (GFP signal): more efficacious at lower doses; also recorded: surpassing the robust UPR^mt caused by cco-1 RNAi feeding
E. coli
  MIC for E. coli: significantly higher MIC
P. aeruginosa
  MIC for P. aeruginosa: significantly higher MIC
HEK293T cells [5]
  impact on the mitonuclear protein imbalance: ~2 fold
HEK293T cells [6]
  basal oxygen consumption rate (OCR): reduced basal oxygen consumption rate (OCR) in a dose-dependent and more pronounced fashion than Dox
HEK293T cells [7]
  induction of transcripts for the mammalian MSR signature genes: more prominent
[8]
  induction of the ISGs and MSR genes: superior to Dox
[9]
  secretion of IFNβ: superior to Dox
IFV H1N1 PR8 strain [1]
  survival (mice recovering): 50%
IFV H1N1 PR8 strain [1]; day 7 post infection, Dox 40 mpkd, 9-TB 1 mpkd
  viral titer in the lung tissue: no significant difference in viral titer
IFV H1N1 PR8 strain [10]; 9-TB 12.5 mpkd i.p.
  mortality and decline in health: delayed mortality
IFV H1N1 PR8 strain [10]; day 5 post-infection, 9-TB 12.5 mpkd
  viral titer in the lungs: absence of an impact on the viral titer
IFV H1N1 PR8 strain [11]
  survival: 20%
Gut bacterial community
  gut bacterial community composition (perMANOVA, NMDS): no differences were observed
[2]; 9-TB 1 mpkd vs control IFV-infected
  inflammatory and immune-related terms in the lungs (GSEA): significantly down-regulated
[2]; 9-TB 1 mpkd, Dox 40 mpkd
  immune-related and inflammatory gene sets in liver and kidney (GSEA): down-regulated
  lung cell type transcript profiles (GSEA): reverted the loss of multiple cell types crucial to lung function

## Cc1c2c(c(O)c3c(O)cccc13)C(=O)[C@]1(O)C(=O)C(C(N)=O)=C(O)[C@@H](N(C)C)[C@@H]1C2 [ATc, anhydrotetracycline]
[3]
  UPR^mt activation (hsp-6::gfp reporter): strongest activators
  induction of MSR and in particular mitohormesis: strongly induce MSR
[4]
  UPR^mt induction, dose-response (GFP signal): more efficacious at lower doses
HEK293T cells [5]
  impact on the mitonuclear protein imbalance: ~2 fold
HEK293T cells [6]
  basal oxygen consumption rate (OCR): reduced basal oxygen consumption rate (OCR) in a dose-dependent and more pronounced fashion than Dox
HEK293T cells [7]
  induction of transcripts for the mammalian MSR signature genes: more prominent
[8]
  induction of the ISGs and MSR genes: superior to Dox
[9]
  secretion of IFNβ: superior to Dox
